In data set [1] the test system is Oryctolagus cuniculus. Put plainly: Antihyperlipidemic activity in high fat-high cholesterol fed New Zealand Oryctolagus cuniculus (rabbit) assessed as high-density lipoprotein-cholesterol level in blood at 5 mg/kg, po for 40 days (reference value: 0.69 +/- 0.02 mmol/l). Format: functional.
Data set [2] concerns Oryctolagus cuniculus. Put plainly: Antihyperlipidemic activity in high fat-high cholesterol fed New Zealand Oryctolagus cuniculus (rabbit) assessed as low-density lipoprotein-cholesterol level in blood at 15 mg/kg, po for 40 days (reference value: 3.47 +/- 0.44 mmol/l). Type of data set: functional.
Data set [3] has as its system Oryctolagus cuniculus. Put plainly: Antihyperlipidemic activity in high fat-high cholesterol fed New Zealand Oryctolagus cuniculus (rabbit) assessed as low-density lipoprotein-cholesterol level in blood at 10 mg/kg, po for 40 days (reference value: 3.47 +/- 0.44 mmol/l). Format: functional.
The test system of data set [4] is Oryctolagus cuniculus. Put plainly: Antihyperlipidemic activity in high fat-high cholesterol fed New Zealand Oryctolagus cuniculus (rabbit) assessed as triglyceride level in blood at 15 mg/kg, po for 40 days (reference value: 2.07 +/- 0.33 mmol/l). Format: functional.
In data set [5] the test system is Oryctolagus cuniculus. In words: Antihyperlipidemic activity in high fat-high cholesterol fed New Zealand Oryctolagus cuniculus (rabbit) assessed as triglyceride level in blood at 5 mg/kg, po for 40 days (reference value: 2.07 +/- 0.33 mmol/l). Format: functional.
The test system of data set [6] is Oryctolagus cuniculus. In words: Antihyperlipidemic activity in high fat-high cholesterol fed New Zealand Oryctolagus cuniculus (rabbit) assessed as total cholesterol level in blood at 15 mg/kg, po for 40 days (reference value: 8.74 +/- 0.53 mmol/l). Type of data set: functional.
Data set [7] concerns Oryctolagus cuniculus. Put plainly: Antihyperlipidemic activity in high fat-high cholesterol fed New Zealand Oryctolagus cuniculus (rabbit) assessed as total cholesterol level in blood at 10 mg/kg, po for 40 days (reference value: 8.74 +/- 0.53 mmol/l). Format: functional.
The subject of data set [8] is Oryctolagus cuniculus. Put plainly: Antihyperlipidemic activity in high fat-high cholesterol fed New Zealand Oryctolagus cuniculus (rabbit) assessed as total cholesterol level in blood at 5 mg/kg, po for 40 days (reference value: 8.74 +/- 0.53 mmol/l). Type of data set: functional.
Data set [9] has as its system Oryctolagus cuniculus. In words: Antihyperlipidemic activity in high fat-high cholesterol fed New Zealand Oryctolagus cuniculus (rabbit) assessed as low-density lipoprotein-cholesterol level in blood at 15 mg/kg, po for 40 days (reference value: 3.45 +/- 0.56 mmol/l). Type of data set: functional.
The test system of data set [10] is Oryctolagus cuniculus. Put plainly: Antihyperlipidemic activity in high fat-high cholesterol fed New Zealand Oryctolagus cuniculus (rabbit) assessed as total cholesterol level in blood at 15 mg/kg, po for 40 days (reference value: 8.89 +/- 0.53 mmol/l). Type of data set: functional.
For data set [11], the system named is Oryctolagus cuniculus. Put plainly: Toxicity in hyperlipidemic New Zealand Oryctolagus cuniculus (rabbit) assessed ashistopathological examination of pancreas at 5 to 15 mg/kg/day, po for 2 months by hematoxylin-eosin staining analysis. Format: organism-based. Set-up: route oral. The settings on record: in vivo.
Data set [12] relates to Oryctolagus cuniculus. Put plainly: Toxicity in hyperlipidemic New Zealand Oryctolagus cuniculus (rabbit) assessed as histopathological examination of kidney at 5 to 15 mg/kg/day, po for 2 months by hematoxylin-eosin staining analysis. Type of data set: organism-based. Set-up: route oral. The conditions noted are these: in vivo.
Data set [13] deals with Oryctolagus cuniculus. Put plainly: Toxicity in hyperlipidemic New Zealand Oryctolagus cuniculus (rabbit) assessed as effect on pancreas coefficient at 5 to 15 mg/kg/day, po for 2 months. Type of data set: organism-based. Also noted: route oral. The settings on record: in vivo.
Data set [14] has as its system Oryctolagus cuniculus. Put plainly: Toxicity in hyperlipidemic New Zealand Oryctolagus cuniculus (rabbit) assessed as effect on spleen coefficient at 5 to 15 mg/kg/day, po for 2 months. Format: organism-based. Also noted: route oral. The conditions noted are these: in vivo.
Data set [15] concerns Oryctolagus cuniculus. In words: Toxicity in high fat-high cholesterol fed New Zealand Oryctolagus cuniculus (rabbit) assessed as mortality at 15 mg/kg, po for 40 days. The settings on record: in vivo, 960 h. Type of data set: organism-based. Set-up: dose 15 mg/kg, route oral.
Data set [16] concerns Oryctolagus cuniculus. In words: Antihyperlipidemic activity in high fat-high cholesterol fed New Zealand Oryctolagus cuniculus (rabbit) assessed as high-density lipoprotein-cholesterol level in blood at 15 mg/kg, po for 40 days (reference value: 0.69 +/- 0.02 mmol/l). Format: functional.
The test system of data set [17] is Oryctolagus cuniculus. Put plainly: Toxicity in hyperlipidemic New Zealand Oryctolagus cuniculus (rabbit) assessed as effect on heart coefficient at 5 to 15 mg/kg/day, po for 2 months. Set-up: route oral. The conditions noted are these: in vivo. Type of data set: organism-based.
In data set [18] the test system is Oryctolagus cuniculus. Put plainly: Toxicity in hyperlipidemic New Zealand Oryctolagus cuniculus (rabbit) assessed as effect on liver coefficient at 5 to 15 mg/kg/day, po for 2 months. Type of data set: organism-based. Also noted: route oral. The conditions noted are these: in vivo.
Data set [19] deals with Oryctolagus cuniculus. Put plainly: Toxicity in hyperlipidemic New Zealand Oryctolagus cuniculus (rabbit) assessed as blood urea nitrogen level at 10 mg/kg/day, po for 2 months (reference value: 7.25 +/- 1.46 mmol/l). Format: organism-based. Also noted: route oral. The settings on record: in vivo.
Data set [20] deals with Oryctolagus cuniculus. Put plainly: Toxicity in hyperlipidemic New Zealand Oryctolagus cuniculus (rabbit) assessed as total bilirubin level at 10 mg/kg/day, po for 2 months (reference value: 28.45 +/- 11.55 Umol/l). Set-up: route oral. The conditions noted are these: in vivo. Format: organism-based.
Data set [21] deals with Oryctolagus cuniculus. In words: Toxicity in hyperlipidemic New Zealand Oryctolagus cuniculus (rabbit) assessed as total bilirubin level at 15 mg/kg/day, po for 2 months (reference value: 28.45 +/- 11.55 Umol/l). Format: organism-based. Also noted: route oral. The settings on record: in vivo.
Data set [22] deals with Oryctolagus cuniculus. In words: Toxicity in hyperlipidemic New Zealand Oryctolagus cuniculus (rabbit) assessed as total bilirubin level at 5 mg/kg/day, po for 2 months (reference value: 28.45 +/- 11.55 Umol/l). Type of data set: organism-based. Set-up: route oral. The conditions noted are these: in vivo.
Data set [23] relates to Oryctolagus cuniculus. In words: Toxicity in hyperlipidemic New Zealand Oryctolagus cuniculus (rabbit) assessed as alanine aminotransferase level at 10 mg/kg/day, po for 2 months (reference value: 92.14 +/- 14.3 U/l). Type of data set: organism-based. Set-up: route oral. The conditions noted are these: in vivo.

As to `CCCCCCCCCCCCCCCCc1c2c(OC)c(OC)ccc2cc2[n+]1CCc1cc3c(cc1-2)OCO3.[Cl-]` [8-HEXADECYL-BERBERINE CHLORIDE], the Activity in the data set on Oryctolagus cuniculus [1] was determined as 700000 nmol/L; in the data set with Oryctolagus cuniculus [2], 2.05e+06 nmol/L; in the data set with Oryctolagus cuniculus [3], 2.46e+06 nmol/L; in the data set with Oryctolagus cuniculus [4], 1.25e+06 nmol/L; with Oryctolagus cuniculus [5], 1.95e+06 nmol/L; in the data set on Oryctolagus cuniculus [6] it was 2.28e+06 nmol/L. Further, the Activity is 4.26e+06 nmol/L with Oryctolagus cuniculus [7]; 6.92e+06 nmol/L in the data set on Oryctolagus cuniculus [8]; 2.02e+06 nmol/L with Oryctolagus cuniculus [9]; 2.22e+06 nmol/L with Oryctolagus cuniculus [10]; “Non-toxic” in the data set with Oryctolagus cuniculus [11]; “Non-toxic” in the data set on Oryctolagus cuniculus [12]. The Activity entry with Oryctolagus cuniculus [13] is “Non-toxic”; in the data set on Oryctolagus cuniculus [14] it was “Non-toxic”; in the data set with Oryctolagus cuniculus [15], “Non-toxic”; in the data set on Oryctolagus cuniculus [16], 750000 nmol/L; in the data set with Oryctolagus cuniculus [17] it was “Non-toxic”; in the data set on Oryctolagus cuniculus [18], “Non-toxic”. Also, the Activity in the data set with Oryctolagus cuniculus [19] was found to be 4.73 mmol/L; with Oryctolagus cuniculus [20] it was 13.3 µmol/L; with Oryctolagus cuniculus [21], 12.8 µmol/L; in the data set with Oryctolagus cuniculus [22], 15.6 µmol/L; with Oryctolagus cuniculus [23], 71.53 U/L.

Values taken from ChEMBL document CHEMBL3046105, “Synthesis and antihyperlipidemic efficiency of berberine-based HMG-CoA reductase inhibitor” (Med Chem Res, 2012).
